Reference: US11236087B2, “Highly active pyrazolo-piperidine substituted indole-2-carboxamides active against the hepatitis B virus (HBV)” (AiCuris GmbH & Co. KG, priority 2017, dated 2022)
pEC50, pIC50: −log10 of the molar value.

Experiments:
[1] = test system: HBV; test: Determination of HBV DNA from the supernatants of HepAD38 cells (anti-HBV activity); format: cell-based, hepatitis B virus; settings: Hepatitis B virus, 144 h; HBV DNA in HepAD38 supernatant, day 6, qPCR; read-out: Cell Activity (EC50)
In short: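 HepAD38 cells, tetracycline withdrawn to induce HBV, treated with serial half-log compound dilutions; on day 6 HBV DNA purified from filtered supernatant and quantified by real-time PCR against HBV plasmid standards; EC50 from relative copy numbers by non-linear regression, three experiments in triplicate.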

[2] = molecular target: T1, HBV core protein (UniProt P03146); test: Biochemical capsid assembly assay (fluorescence quenching); set-up: species or system hepatitis B virus; settings: read-out: Assembly Activity (IC50); BODIPY-FL labelled core protein, 300 μM NaCl, read 6 min after start
T1 construct: fused on or other part: BODIPY-FL maleimide label on the C-terminal Cys150
In short: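 Purified E. coli-expressed HBV core protein (aa 1-149 plus Cys150), BODIPY-FL maleimide-labelled, at 1.0-2.0 μM in 50 mM HEPES pH 7.5 with 0.5% DMSO was used. Compounds were tested at 8 concentrations (0.5-log dilutions from 100, 31.6 or 10 μM). Assembly was started with NaCl ([…]), and fluorescence quenching was read after 6 min (ex 477/em 525 nm). EC50 was determined by non-linear regression.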

[3] = Cell viability assay (AlamarBlue) in HepAD38 cells; settings: human

T1 sequence (P03146 whole entry, looked up, the tested form may be a part): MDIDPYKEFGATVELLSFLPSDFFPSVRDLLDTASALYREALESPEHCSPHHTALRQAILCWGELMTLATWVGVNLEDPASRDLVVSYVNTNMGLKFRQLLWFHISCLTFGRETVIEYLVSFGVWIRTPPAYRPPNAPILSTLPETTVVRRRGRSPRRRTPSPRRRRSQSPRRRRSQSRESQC

With CCOCCN(C)C(=O)c1n[nH]c2c1CN(C(=O)c1cc3ccccc3[nH]1)CC2 [Example 255, N-(2-ethoxyethyl)-5-(1H-indole-2-carbonyl)-N-methyl-1H,4H,5H,6H,7H-pyrazolo[4,3-c]pyridine-3-carboxamide] the pEC50 [1] was > 6.00, the pIC50 [2] was > 5.30 and the CC50 at 6 days [3] was > 10 µM.
With CN(CC(O)C1CC1)C(=O)c1n[nH]c2c1CN(C(=O)c1cc3ccccc3[nH]1)CC2 (stereo not drawn) [Example 256, N-(2-cyclopropyl-2-hydroxyethyl)-5-(1H-indole-2-carbonyl)-N-methyl-1H,4H,5H,6H,7H-pyrazolo[4,3-c]pyridine-3-carboxamide] the pEC50 [1] was > 6.00, the pIC50 [2] was > 5.30 and the CC50 at 6 days [3] was > 10 µM.
With COCC1(N(C)C(=O)c2n[nH]c3c2CN(C(=O)c2cc4c(Cl)cccc4[nH]2)CC3)CC1 [Example 262, 5-(4-chloro-1H-indole-2-carbonyl)-N-[1-(methoxymethyl)cyclopropyl]-N-methyl-1H,4H,5H,6H,7H-pyrazolo[4,3-c]pyridine-3-carboxamide] the pEC50 [1] was > 6.00, the pIC50 [2] was > 5.30 and the CC50 at 6 days [3] was > 10 µM.
In the case of COCC1(N(C)C(=O)c2n[nH]c3c2CN(C(=O)c2cc4ccc(Cl)cc4[nH]2)CC3)CC1 [Example 263, 5-(6-chloro-1H-indole-2-carbonyl)-N-[1-(methoxymethyl)cyclopropyl]-N-methyl-1H,4H,5H,6H,7H-pyrazolo[4,3-c]pyridine-3-carboxamide], the pEC50 [1] was > 6.00, the pIC50 [2] was > 5.30 and the CC50 at 6 days [3] was > 10 µM.
In the case of COCC1(N(C)C(=O)c2n[nH]c3c2CN(C(=O)c2cc4c(Cl)cc(F)cc4[nH]2)CC3)CC1 [Example 264, 5-(4-chloro-6-fluoro-1H-indole-2-carbonyl)-N-[1-(methoxymethyl)cyclopropyl]-N-methyl-1H,4H,5H,6H,7H-pyrazolo[4,3-c]pyridine-3-carboxamide], the pEC50 [1] was > 6.00, the pIC50 [2] was > 5.30 and the CC50 at 6 days [3] was > 10 µM.
In the case of COCC1(N(C)C(=O)c2n[nH]c3c2CN(C(=O)c2cc4cc(F)c(Cl)cc4[nH]2)CC3)CC1 [Example 265, 5-(6-chloro-5-fluoro-1H-indole-2-carbonyl)-N-[1-(methoxymethyl)cyclopropyl]-N-methyl-1H,4H,5H,6H,7H-pyrazolo[4,3-c]pyridine-3-carboxamide], the pEC50 [1] was > 6.00, the pIC50 [2] was > 5.30 and the CC50 at 6 days [3] was > 10 µM.
In the case of COCC1(N(C)C(=O)c2n[nH]c3c2CN(C(=O)c2cc4c(F)cc(F)cc4[nH]2)CC3)CC1 [Example 266, 5-(4,6-difluoro-1H-indole-2-carbonyl)-N-[1-(methoxymethyl)cyclopropyl]-N-methyl-1H,4H,5H,6H,7H-pyrazolo[4,3-c]pyridine-3-carboxamide], the pEC50 [1] was > 6.00, the pIC50 [2] was > 5.30 and the CC50 at 6 days [3] was > 10 µM.
With COCC1(N(C)C(=O)c2n[nH]c3c2CN(C(=O)c2cc4c(F)c(F)ccc4[nH]2)CC3)CC1 [Example 267, 5-(4,5-difluoro-1H-indole-2-carbonyl)-N-[1-(methoxymethyl)cyclopropyl]-N-methyl-1H,4H,5H,6H,7H-pyrazolo[4,3-c]pyridine-3-carboxamide] the pEC50 [1] was > 6.00, the pIC50 [2] was > 5.30 and the CC50 at 6 days [3] was > 10 µM.
In the case of COCC1(N(C)C(=O)c2n[nH]c3c2CN(C(=O)c2cc4c(C)cc(F)cc4[nH]2)CC3)CC1 [Example 269, 5-(6-fluoro-4-methyl-1H-indole-2-carbonyl)-N-[1-(methoxymethyl)cyclopropyl]-N-methyl-1H,4H,5H,6H,7H-pyrazolo[4,3-c]pyridine-3-carboxamide], the pEC50 [1] was > 6.00, the pIC50 [2] was > 5.30 and the CC50 at 6 days [3] was > 10 µM.
For CCc1cccc2[nH]c(C(=O)N3CCc4[nH]nc(C(=O)N(C)C5(COC)CC5)c4C3)cc12 [Example 270, 5-(4-ethyl-1H-indole-2-carbonyl)-N-[1-(methoxymethyl)cyclopropyl]-N-methyl-1H,4H,5H,6H,7H-pyrazolo[4,3-c]pyridine-3-carboxamide], the pEC50 [1] was > 6.00, the pIC50 [2] was > 5.30 and the CC50 at 6 days [3] was > 10 µM.
In the case of CCc1cc(F)cc2[nH]c(C(=O)N3CCc4[nH]nc(C(=O)N(C)C5(CO)CC5)c4C3)cc12 [Example 271, 5-(4-ethyl-6-fluoro-1H-indole-2-carbonyl)-N-[1-(hydroxymethyl)cyclopropyl]-N-methyl-1H,4H,5H,6H,7H-pyrazolo[4,3-c]pyridine-3-carboxamide], the pEC50 [1] was > 6.00, the pIC50 [2] was > 5.30 and the CC50 at 6 days [3] was > 10 µM.
For CCc1cc(F)cc2[nH]c(C(=O)N3CCc4[nH]nc(C(=O)N(C)C5(COC)CC5)c4C3)cc12 [Example 272, 5-(4-ethyl-6-fluoro-1H-indole-2-carbonyl)-N-[1-(methoxymethyl)cyclopropyl]-N-methyl-1H,4H,5H,6H,7H-pyrazolo[4,3-c]pyridine-3-carboxamide], the pEC50 [1] was > 6.00, the pIC50 [2] was > 5.30 and the CC50 at 6 days [3] was > 10 µM.
With CCON=C(C)c1n[nH]c2c1CN(C(=O)c1cc3ccccc3[nH]1)CC2 [Example 273, ethoxy({1-[5-(1H-indole-2-carbonyl)-1H,4H,5H,6H,7H-pyrazolo[4,3-c]pyridin-3-yl]ethylidene})amine] the pEC50 [1] was 4.60 to 6.00, the pIC50 [2] was > 4.00 and the CC50 at 6 days [3] was > 10 µM.
For CON=C(C)c1n[nH]c2c1CN(C(=O)c1cc3ccccc3[nH]1)CC2 [Example 274, {1-[5-(1H-indole-2-carbonyl)-1H,4H,5H,6H,7H-pyrazolo[4,3-c]pyridin-3-yl]ethylidene}(methoxy)amine], the pEC50 [1] was 4.60 to 6.00, the pIC50 [2] was > 4.00 and the CC50 at 6 days [3] was > 10 µM.
With O=C(c1cc2ccccc2[nH]1)N1CCc2n[nH]c(C(=O)N3CCCCC34CC4)c2C1 [Example 279, 2-(3-{4-azaspiro[2.5]octane-4-carbonyl}-2H,4H,5H,6H,7H-pyrazolo[4,3-c]pyridine-5-carbonyl)-1H-indole] the pEC50 [1] was > 6.00, the pIC50 [2] was > 5.30 and the CC50 at 6 days [3] was > 10 µM.
For CN(CCN)C(=O)c1[nH]nc2c1CN(C(=O)c1cc3ccccc3[nH]1)CC2 [Example 280, N-(2-aminoethyl)-5-(1H-indole-2-carbonyl)-N-methyl-2H,4H,5H,6H,7H-pyrazolo[4,3-c]pyridine-3-carboxamide], the pEC50 [1] was > 6.00, the pIC50 [2] was > 4.00 and the CC50 at 6 days [3] was > 10 µM.
In the case of CNC(=O)c1n[nH]c2c1CN(C(=O)c1cc3ccccc3[nH]1)CC2 [Example 285, 5-(1H-indole-2-carbonyl)-N-methyl-1H,4H,5H,6H,7H-pyrazolo[4,3-c]pyridine-3-carboxamide], the pEC50 [1] was 4.60 to 6.00, the pIC50 [2] was > 4.00 and the CC50 at 6 days [3] was > 10 µM.
For CN(C(=O)c1n[nH]c2c1CN(C(=O)c1cc3c(Cl)cccc3[nH]1)CC2)C1(CO)CC1 [Example 290, 5-(4-chloro-1H-indole-2-carbonyl)-N-[1-(hydroxymethyl)cyclopropyl]-N-methyl-1H,4H,5H,6H,7H-pyrazolo[4,3-c]pyridine-3-carboxamide], the pEC50 [1] was > 6.00, the pIC50 [2] was > 5.30 and the CC50 at 6 days [3] was > 10 µM.
In the case of CCc1cccc2[nH]c(C(=O)N3CCc4[nH]nc(C(=O)N(C)C5(CO)CC5)c4C3)cc12 [Example 291, 5-(4-ethyl-1H-indole-2-carbonyl)-N-[1-(hydroxymethyl)cyclopropyl]-N-methyl-1H,4H,5H,6H,7H-pyrazolo[4,3-c]pyridine-3-carboxamide], the pEC50 [1] was > 6.00, the pIC50 [2] was > 5.30 and the CC50 at 6 days [3] was > 10 µM.
In the case of CN(CCC#N)C(=O)c1n[nH]c2c1CN(C(=O)c1cc3ccccc3[nH]1)CC2 [Example 292, N-(2-cyanoethyl)-5-(1H-indole-2-carbonyl)-N-methyl-1H,4H,5H,6H,7H-pyrazolo[4,3-c]pyridine-3-carboxamide], the pEC50 [1] was 4.60 to 6.00, the pIC50 [2] was > 5.30 and the CC50 at 6 days [3] was > 10 µM.
